According to paper PMC3069040, “A Conserved Cysteine Motif Is Critical for Rice Ceramide Kinase Activity and Function” (PLoS ONE, 2011):

Key:
rACD5 = target: T1, rACD5 (Arabidopsis thaliana, UniProt Q6USK2); experiment: TLC with NBD fluorescence scan, turnover; format: biochemical; conditions: ATP 1 mM, 15 mM MgCl2, mixed micelles, 40 °C, 30 min; labelled compound
T1 construct: gene CERK; coding region in pET28b, His-tagged, E. coli BL21 (DE3), Ni-NTA; N-terminus from primer MEEGRDDE
T1 sequence (Q6USK2 1-608): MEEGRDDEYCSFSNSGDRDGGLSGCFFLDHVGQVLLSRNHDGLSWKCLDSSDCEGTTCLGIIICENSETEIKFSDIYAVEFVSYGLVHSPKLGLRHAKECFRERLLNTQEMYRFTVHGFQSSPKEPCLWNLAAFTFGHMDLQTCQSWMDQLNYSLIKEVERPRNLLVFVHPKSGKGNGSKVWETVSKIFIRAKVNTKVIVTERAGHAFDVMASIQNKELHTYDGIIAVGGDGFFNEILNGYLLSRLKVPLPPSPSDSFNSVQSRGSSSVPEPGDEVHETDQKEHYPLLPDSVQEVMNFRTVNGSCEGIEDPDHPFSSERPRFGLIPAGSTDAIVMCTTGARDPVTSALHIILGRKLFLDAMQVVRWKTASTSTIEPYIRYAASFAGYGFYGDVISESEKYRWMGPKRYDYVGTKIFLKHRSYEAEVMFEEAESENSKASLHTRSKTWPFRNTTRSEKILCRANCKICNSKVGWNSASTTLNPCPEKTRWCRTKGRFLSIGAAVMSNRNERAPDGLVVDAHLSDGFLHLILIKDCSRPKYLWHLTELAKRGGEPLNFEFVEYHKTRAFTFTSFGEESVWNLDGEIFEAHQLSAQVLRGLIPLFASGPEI

OsCERK = target: T2, OsCERK (Oryza sativa, UniProt C0LT23); experiment: TLC with NBD fluorescence scan, inhibition of C6-NBD-ceramide phosphorylation; format: biochemical
T2 construct: gene CERK; N-terminus from primer MEGGGEAL
T2 sequence (C0LT23 1-607): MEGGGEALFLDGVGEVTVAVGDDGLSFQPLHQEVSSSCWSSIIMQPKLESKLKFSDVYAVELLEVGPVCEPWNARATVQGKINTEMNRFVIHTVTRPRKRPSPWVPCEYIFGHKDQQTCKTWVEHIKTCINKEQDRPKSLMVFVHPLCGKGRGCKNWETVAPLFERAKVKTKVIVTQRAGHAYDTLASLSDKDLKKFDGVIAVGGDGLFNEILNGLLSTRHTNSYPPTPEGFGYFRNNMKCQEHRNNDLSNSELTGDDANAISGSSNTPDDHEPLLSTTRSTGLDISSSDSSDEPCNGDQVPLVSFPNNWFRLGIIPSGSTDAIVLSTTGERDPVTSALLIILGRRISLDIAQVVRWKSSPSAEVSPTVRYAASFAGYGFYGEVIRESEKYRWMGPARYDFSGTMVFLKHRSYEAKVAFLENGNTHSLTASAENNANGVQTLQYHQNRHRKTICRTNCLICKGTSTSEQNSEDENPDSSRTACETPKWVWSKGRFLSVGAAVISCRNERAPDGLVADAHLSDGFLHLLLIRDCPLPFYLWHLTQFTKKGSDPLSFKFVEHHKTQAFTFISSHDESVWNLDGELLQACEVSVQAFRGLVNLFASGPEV

[1] = substrate: Nc1ncnc2c1ncn2[C@@H]1O[C@H](COP(=O)(O)OP(=O)(O)OP(=O)(O)O)[C@@H](O)[C@H]1O; experiment: TLC with NBD fluorescence scan, Lineweaver-Burk; format: biochemical, Oryza sativa; conditions: co-substrate C6-NBD-ceramide, 15 mM MgCl2, mixed micelles, Hepes pH 7.4, 40 °C, Discussion b40 prints 36.35 µM
[2] = substrate: CCCCCCCCCCCCC/C=C/[C@@H](O)[C@H](CO)NC(=O)CCCCCNc1ccc([N+](=O)[O-])c2nonc12; experiment: TLC with NBD fluorescence scan, Lineweaver-Burk; format: biochemical, Oryza sativa; conditions: ATP 1 mM, 15 mM MgCl2, Triton X-100/cardiolipin mixed micelles, Hepes pH 7.4, 40 °C, labelled compound

Molecule: CCCCCCCCCCCCC/C=C/[C@@H](O)[C@H](CO)NC(=O)CCCCCNc1ccc([N+](=O)[O-])c2nonc12 [D-erythro-C6-NBD-ceramide]
- TLC with NBD fluorescence scan, turnover (rACD5): phosphorylating C6-NBD-ceramide to give C6-NBD-ceramide-1-phosphate, as did recombinant OsCERK and rACD5

Molecule: CCCCCCCCCCCCC/C=C/[C@@H](O)[C@H](CO)N(C)C [N,N-dimethylsphingosine]
- inhibition at 100 µM (OsCERK): ~70%

Molecule: O=C(Nc1nc2ccc(NC(=O)C34CC5CC(CC(C5)C3)C4)cc2s1)c1ccccc1 [ceramide kinase inhibitor K1]
- % inhibition at 200 μM (OsCERK; C6-NBD-ceramide, ATP, 15 mM MgCl2, mixed micelles, 40 °C, 0.5% ethanol or methanol as solvent): > 90%

B1: OsCERK (Oryza sativa Japonica Group) (protein)
chain: T2 sequence (C0LT23 1-607)
notes: N-terminus from primer MEGGGEAL
- Km [1]: 35.36 µM
- Km [2]: 4.1 µM
